Measurements published in patent publication US20250026765A1, “SPIROHETEROCYCLE DERIVATIVE HAVING SEROTONIN RECEPTOR BINDING ACTIVITY” (Shionogi & Co., Ltd., priority 2021, published 2025).
Like-named read-outs stand apart in the source and are kept apart here.

Key:
[1] = molecular target: human recombinant 5-HT2A receptor (Homo sapiens (Human), UniProt P28223); assay: 5-HT2A receptor binding inhibition test ([3H]-Ketanserin); details: Jump-In HEK cell membrane, 25° C. 1.5 hours
Procedure: Test Example 1: 5-HT2A Receptor Binding Inhibition Test
(§1) (Each Experimental Condition)
Cell membrane: 15 μg of Jump-In HEK cell membrane (expressing human recombinant 5-HT2A receptor) per well
(§2) Assay buffer: Tris-HCl 50 mmol/L (pH 7.4) containing NaCl 120 mmol/L, MgCl2·6H2O 1 mmol/L, KCl 5 mmol/L, 0.1% BSA and CaCl2 2 mmol/L
Radioactive ligand: [^3H]-Ketanserin with a final concentration of around Kd value calculated by the following method
Non-specific ligand: Serotonin HCl with a final concentration of 500 μmol/L
(§3) The Kd value is calculated when the lot of cell membrane is changed. In advance, 0.5 μL of a 1 mmol/L compound for non-specific binding calculation dissolved in DMSO or DMSO is dispensed into a microplate, and the cell membrane is diluted with an Assay buffer. The radioactive ligand solution is serially diluted and the count is confirmed with a liquid scintillator. Assay buffer containing diluted cell membrane is dispensed into a microplate at 50 μL/well. Then, the radioactive ligand solution is dispensed into a microplate at 50 μL/well, and the plate is sealed. It is allowed to stand at room temperature (25° C.) for 1.5 hours. During this period, 50 mmol/L Tris-HCl (pH 7.4) is dispensed into a GF/B UniFilter plate at 50 μL/well and allowed to stand at 4° C. for 1 hour or longer. After that, filtration is performed with Cell harvester (PerkinElmer). The radioactive ligand solution is dispensed into an empty well of the GF/B UniFilter plate at 10 μL/well. After the GF/B UniFilter plate is dried at room temperature, MicroScinti 20 is dispensed into the GF/B UniFilter plate at 50 μL/well to seal the plate. The GF/B UniFilter plate is allowed to stand overnight at room temperature. The radioactivity of [^3H]-Ketanserin bound to the 5-HT2A receptor is measured using Microbeta2 (PerkinElmer) at a measurement time of 1 min/well. The Saturation curve is drawn from the measured value, and the Kd value is calculated from the slope of the Scatchard Plot.
(§4) (Binding Test of the Compound According to the Present Invention)
In advance, 0.5 μL of the compound solution dissolved in DMSO is dispensed into a microplate, and the cell membrane and the hot ligand are diluted with Assay buffer, respectively. Then, the Assay buffer containing the diluted cell membrane is dispensed into a microplate at 50 μL/well. Then, the radioactive ligand solution is dispensed into a microplate at 50 μL/well, and the plate is sealed. Then, it is allowed to stand at room temperature (25° C.) for 1.5 hours. During this period, 50 mmol/L Tris-HCl (pH 7.4) is dispensed into a GF/B UniFilter plate at 50 μL/well and allowed to stand at 4° C. for 1 hour or longer. After that, filtration is performed with Cell harvester (PerkinElmer). After the GF/B UniFilter plate is dried at room temperature, MicroScinti 20 is dispensed into the GF/B UniFilter plate at 50 μL/well to seal the plate. The GF/B UniFilter plate is allowed to stand overnight at room temperature. The radioactivity of [^3H]-Ketanserin bound to the 5-HT2A receptor is measured using Microbeta2 (PerkinElmer) at a measurement time of 1 min/well. The non-specific binding is calculated from the radioactivity of [^3H]-Ketanserin in the presence of 500 μmol/L Serotonin HCl which is the unlabeled ligand, and the total binding is calculated from the radioactivity of [^3H]-Ketanserin in the absence of the compound according to the present invention (Vehicle). Finally, the Ki value is calculated from the dose-response curve.
(§5) (The binding activity of the compound according to the present invention is calculated from the following binding inhibition rate (%).)
(§6) [formula] • a; mean cpm of non-specific binding • b; average cpm of total binding • c; cpm in the presence of the test compound

[2] = molecular target: human recombinant 5-HT2C receptor (Homo sapiens (Human), UniProt P28335); assay: 5-HT2C receptor binding inhibition test ([3H]-Mesulergine); details: Jump-In HEK cell membrane, 37° C. 2 hours
Procedure: Test Example 2: 5-HT2C Receptor Binding Inhibition Test
as §1
Cell membrane: 0.5 μg of Jump-In HEK cell membrane (expressing human recombinant 5-HT2C receptor) per well
as §2
Radioactive ligand: [^3H]-Mesulergine with a final concentration of around Kd value calculated by the following method
Non-specific ligand: Serotonin HCl with a final concentration of […]
as §3, with “37° C.” for “room temperature (25° C.)”, “2” for “1.5”, “[^3H]-Mesulergine” for “[^3H]-Ketanserin”, “5-HT2C” for “5-HT2A”
as §4
In advance, 0.5 μL of the compound solution dissolved in DMSO is dispensed into a microplate, and the cell membrane and the hot ligand are diluted with Assay buffer, respectively. Then, the Assay buffer containing the diluted cell membrane is dispensed into a microplate at 50 μL/well. Then, the radioactive ligand solution is dispensed into a microplate at 50 μL/well, and the plate is sealed. Then, it is allowed to stand at 37° C. for 2 hours. During this period, 50 mmol/L Tris-HCl (pH 7.4) is dispensed into a GF/B UniFilter plate at 50 μL/well and allowed to stand at 4° C. for 1 hour or longer. After that, filtration is performed with Cell harvester (PerkinElmer). After the GF/B UniFilter plate is dried at room temperature, MicroScinti 20 is dispensed into the GF/B UniFilter plate at 50 μL/well, and the plate is sealed. The GF/B UniFilter plate is allowed to stand overnight at room temperature. The radioactivity of [^3H]-Mesulergine bound to the 5-HT2C receptor is measured using Microbeta2 (PerkinElmer) at a measurement time of 1 min/well. The non-specific binding is calculated from the radioactivity of […] in the presence of 500 μmol/L Serotonin HCl which is the unlabeled ligand, and the total binding is calculated from the radioactivity of [^3H]-Mesulergine in the absence of the compound according to the present invention (Vehicle). Finally, the Ki value is calculated from the dose-response curve.
as §5, §6

[3] = read-out: human serotonin 5-HT2A receptor binding activity Ki
[4] = read-out: human serotonin 5-HT2C receptor binding activity Ki

Sequence of human recombinant 5-HT2C receptor (P28335 33-458): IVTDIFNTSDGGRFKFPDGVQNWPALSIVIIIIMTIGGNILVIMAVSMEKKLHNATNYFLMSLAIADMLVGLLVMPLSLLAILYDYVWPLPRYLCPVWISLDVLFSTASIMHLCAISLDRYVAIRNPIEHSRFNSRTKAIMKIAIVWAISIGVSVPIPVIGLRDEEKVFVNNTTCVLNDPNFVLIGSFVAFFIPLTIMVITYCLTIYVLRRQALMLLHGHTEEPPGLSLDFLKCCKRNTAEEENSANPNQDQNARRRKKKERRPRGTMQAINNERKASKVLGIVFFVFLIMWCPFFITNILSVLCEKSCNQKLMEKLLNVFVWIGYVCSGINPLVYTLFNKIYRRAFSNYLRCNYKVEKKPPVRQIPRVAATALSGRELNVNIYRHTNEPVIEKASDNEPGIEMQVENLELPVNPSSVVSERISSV
Sequence of human recombinant 5-HT2A receptor (P28223 whole entry): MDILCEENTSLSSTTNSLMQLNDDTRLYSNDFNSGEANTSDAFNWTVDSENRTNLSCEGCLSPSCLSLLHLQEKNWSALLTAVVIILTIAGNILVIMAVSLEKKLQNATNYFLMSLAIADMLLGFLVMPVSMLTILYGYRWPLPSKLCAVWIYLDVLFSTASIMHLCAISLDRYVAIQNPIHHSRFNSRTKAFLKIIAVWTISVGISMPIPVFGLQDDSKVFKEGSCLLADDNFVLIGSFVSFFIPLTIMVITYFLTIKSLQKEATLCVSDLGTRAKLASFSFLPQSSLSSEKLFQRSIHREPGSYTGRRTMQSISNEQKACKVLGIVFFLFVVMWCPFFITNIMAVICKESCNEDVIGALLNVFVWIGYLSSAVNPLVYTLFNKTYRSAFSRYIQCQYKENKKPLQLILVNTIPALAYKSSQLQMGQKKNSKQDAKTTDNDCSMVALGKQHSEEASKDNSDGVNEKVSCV

SMILES | Ki ([1]; read-out: h-5-HT2A Ki) | Ki ([2]; read-out: h-5-HT2C Ki) | Ki [1, 3] | Ki [2, 4]
CCCOc1ccc(CC2=NOC3(CCN(C)CC34CC4)N2Cc2cc(C)n(C)n2)cc1 (racemic) [Compound I-029] | < 10 nM | < 10 nM |  | 
COc1ccc(CC2=NOC3(CCN(C)CC34CC4)N2Cc2cc(C)n(C)n2)cc1 (racemic) [Compound I-034] | < 10 nM | 10 to 100 nM |  | 
Cc1cc(CN2C(Cc3ccc(OC(F)F)cc3)=NOC23CCN(C)CC32CC2)nn1C (racemic) [Compound I-035] | < 10 nM | < 10 nM |  | 
CCCOc1ccc(CC2=NOC3(CCNCC34CC4)N2Cc2ccn(C)n2)cc1 (racemic) [Compound I-037] | < 10 nM | < 10 nM |  | 
Cn1ccc(CN2C(Cc3ccc(OC4CC4)cc3)=NOC23CCNCC32CC2)n1 (racemic) [Compound I-038] | 10 to 100 nM | < 10 nM |  | 
CCCOc1ccc(CNC2=NOC3(CCN(C)CC34CC4)N2Cc2ccn(C)n2)cc1 (racemic) [Compound I-040] | 100 to 500 nM | 100 to 500 nM |  | 
CN1CCC2(ON=C(Cc3ccc(OC4CC4)cc3)N2Cc2ccn(C)n2)C2(CC2)C1 (racemic) [Compound I-041] | < 10 nM | < 10 nM |  | 
CC(C)COc1ccc(CN(Cc2ccc(F)cn2)C2=NC(=O)C3(CCN(C)CC34CC4)N2)cc1 (racemic) [Compound I-042] | 10 to 100 nM | 10 to 100 nM |  | 
CC(C)COc1ccc(CN(Cc2ccn(C)n2)C2=NC(=O)C3(CCN(C)CC34CC4)N2)cc1 (racemic) [Compound I-043] | 10 to 100 nM | 10 to 100 nM |  | 
Cc1nc(CN(Cc2ccc(OCC(C)C)cc2)C2=NO[C@@]3(CCNC[C@H]3F)N2)co1 (racemic) [Compound I-085] | < 10 nM | < 10 nM |  | 
CCCOc1ccc(CC2=NOC3(CCN(C)CC34CC4)N2Cc2ccn(C)n2)cc1 (single isomer, unassigned) [Compound I-044] | < 10 nM | < 10 nM |  | 
CCCOc1ccc(CC2=NOC3(CCN(C)CC34CC4)N2Cc2ccn(C)n2)cc1 (single isomer, unassigned) [Compound I-045] | 10 to 100 nM | 100 to 500 nM |  | 
CC(C)COc1ccc(CN(C2=NOC3(CCN(C)CC3)N2)C(C)c2ccc(F)cc2)cc1 (single isomer, unassigned) [Compound I-074] | 100 to 500 nM | 100 to 500 nM |  | 
CC(C)COc1ccc(CC2=NOC3(CCN(C)CC3)N2Cc2ccc(F)cc2)cc1 [Compound I-001] |  |  | 4.82 nM | 16.7 nM
CC(C)COc1ccc(C[C@H]2C(=O)NC3(CCN(C)CC3)N2Cc2ccc(F)cc2)cc1 [Compound I-002] |  |  | 11.1 nM | 27.1 nM
CC(C)COc1ccc(CC2=NOC3(CCNCC3)N2Cc2ccc(F)cc2O)cc1 [Compound I-003] |  |  | 19.8 nM | 4.11 nM
CC(C)COc1ccc(CC2=NOC3(CCN(C)CC3)N2Cc2ccc(F)cc2O)cc1 [Compound I-004] | < 10 nM | 10 to 100 nM |  | 
CC(C)COc1ccc(CN=C2NC(=O)CC3(CCN(C)CC3)N2Cc2ccc(F)cc2)cc1 [Compound I-005] |  |  | 85.3 nM | 219 nM
COc1ccc(CNC2=NOC3(CCN(C)CC3)N2Cc2ccc(F)cc2)cc1 [Compound I-006] | 100 to 500 nM |  |  | 
CC(C)COc1ccc(CN(Cc2ccc(F)cn2)C2=NOC3(CCN(C)CC3)N2)cc1 [Compound I-007] | < 10 nM | 10 to 100 nM |  | 
CC(C)COc1ccc(CCC2=NOC3(CCN(C)CC3)N2Cc2ccc(F)cc2)cc1 [Compound I-008] | 10 to 100 nM | 100 to 500 nM |  | 
CC(C)COc1ccc(CN(Cc2ccn(C)n2)C2=NOC3(CCN(C)CC3)N2)cc1 [Compound I-009] | < 10 nM | < 10 nM |  | 
CN1CCC2(CC1)NC(N(CC(=O)Nc1ccc(Cl)cc1)Cc1ccn(C)n1)=NO2 [Compound I-056] | 100 to 500 nM |  |  | 
Cc1ccc(CN(Cc2ccc(OCC(C)C)cc2)C2=NC(=O)C3(CCN(C)CC3)N2)cn1 [Compound I-059] | 10 to 100 nM |  |  | 
CC(C)COc1ccc(CN(Cc2ccc(F)cc2)C2=NOC3(CCN(C)CC3)N2)cc1 [Compound I-060] |  | 10 to 100 nM |  | 
